Results taken from patent publication US10703764B2, “Benzopiperazine compositions as BET bromodomain inhibitors” (FORMA Therapeutics, Inc., priority 2013, dated 2020).

Experiments:
BRD4 BD1 = biological target: T1, BRD4 BD1 (Homo sapiens, UniProt O60885); experiment: AlphaScreen binding assay, BRD4 Bromodomain 1
T1 construct: made in house
Method in brief: (§1)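 Compound dilution series were mixed with His-tagged BRD4 bromodomain and biotinylated tetra-acetylated H4 (1-21) peptide at pH 7.3 (BD1 and peptide at 50 nM, BD2 and peptide at 100 nM). Donor and acceptor beads were then added, and plates were equilibrated at least 1 h before reading. IC50 values were fitted with a four-parameter logistic model.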

BRD4 BD2 = biological target: T2, BRD4 BD2 (Homo sapiens, UniProt O60885); experiment: AlphaScreen binding assay, BRD4 Bromodomain 2
T2 construct: made in house
Method in brief: as §1

MV4-11 cells = experiment: Oncology cell growth assay (3-day proliferation, CellTiter-Glo); format: cell-based; conditions: Homo sapiens, MV4-11, 72 h, AML cell line MV4-11, 72 hours, compounds grouped by IC50 range, read-out: MV4-11 IC50 (inhibition of proliferation, gIC50)
Method in brief: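 MV4-11 AML cells (RPMI 1640, 10% FBS) plated at 3000 cells/well and exposed 72 h to compound at final 10 to 0.0045 μM (3-fold series). Viability read by CellTiter-Glo luminescence; gIC50 from four-parameter logistic fit between DMSO control and no-cell background.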

Row | Compound | IC50 (BRD4 BD1) [nM] | IC50 (BRD4 BD2) [nM] | IC50 (MV4-11 cells) [nM]
1 | CC(=O)N1c2ccc(-c3ccc(F)c(S(C)(=O)=O)c3)cc2N(C(=O)C2CC2)C[C@@H]1C [Example I-1098] | 1000 to 10000 | 50 to 500 | > 500
2 | CC(=O)N1c2ccc(-c3ccc(S(C)(=O)=O)c(F)c3)cc2N(C(=O)C2CC2)C[C@@H]1C [Example I-1082] | 1000 to 10000 | 50 to 500 | > 500
3 | CC(=O)N1c2ccc(-c3ccc(CS(N)(=O)=O)cc3)cc2N(C(=O)C2CC2)C[C@@H]1C [Example I-445] | 100 to 1000 | 50 to 500 | 100 to 500
4 | CC(=O)N1c2ccc(-c3ccc(S(C)(=O)=O)cc3)cc2N(c2nc3ccccc3o2)C[C@@H]1C [Example I-46, (S)-1-(4-(benzo[d]oxazol-2-yl)-2-methyl-6-(4-(methylsulfonyl)phenyl)-3,4-dihydroquinoxalin-1(2H)-yl)ethanone] | 100 to 1000 | > 500 | 100 to 500
5 | COC(=O)N1c2ccc(-c3cnn(CCN4CCCS4(=O)=O)c3)cc2N(C(=O)OC(C)C)C[C@@H]1C [Example I-626] | 100 to 1000 | 50 to 500 | > 500
6 | CC(=O)N1c2ccc(-c3ccccc3F)cc2N(C(=O)c2ccco2)C[C@@H]1C [Example I-795] | 1000 to 10000 | 50 to 500 | > 500
7 | CC(=O)N1c2ccc(-c3ccc4c(c3)OCCO4)cc2N(C(=O)c2ccco2)C[C@@H]1C [Example I-825] | 100 to 1000 | < 50 | > 500
8 | COc1ccc(C)cc1OC(=O)N1C[C@H](C)N(C(C)=O)c2ccc(-c3cnn(C4CC4)c3)cc21 [Example I-508] | 100 to 1000 | 50 to 500 | 100 to 500
9 | CC(=O)N1c2ccc(-c3ccc(CS(N)(=O)=O)cc3)cc2N(C(=O)OC(C)C)C[C@@H]1C [Example I-475] | 100 to 1000 | 50 to 500 | 100 to 500
10 | CC(=O)N1c2ccc(-c3cnn(C4CCNCC4)c3)cc2N(C(=O)OC(C)C)C[C@@H]1C [Example I-353] | 100 to 1000 | 50 to 500 | 100 to 500
11 | CC(=O)N1c2ccc(-c3cnn(C(C)(C)C)c3)cc2N(C(=O)OC(C)C)C[C@@H]1C [Example I-330] | 100 to 1000 | 50 to 500 | 100 to 500
12 | COc1ccccc1OC(=O)N1C[C@H](C)N(C(C)=O)c2ccc(-c3cnn(C4CC4)c3)cc21 [Example I-258] | 100 to 1000 | < 50 | < 100
13 | CC(C)OC(=O)N1C[C@H](C)N(C(=O)C2CC2)c2ccc(-c3ccc(C(=O)N4CC[C@@H](N(C)C)C4)cc3)cc21 [Example I-564] | 100 to 1000 | 50 to 500 | 100 to 500
14 | CC(C)OC(=O)N1C[C@H](C)N(C(=O)C2CC2)c2ccc(-c3cnn(CC4CC4)c3)cc21 [Example I-316] | 100 to 1000 | 50 to 500 | 100 to 500
15 | CC(=O)N1c2ccc(-c3cnn(C(F)F)c3)cc2N(C(=O)OC(C)C)C[C@@H]1C [Example I-336] | 100 to 1000 | 50 to 500 | > 500
16 | CC(=O)N1c2ccc(-c3ccc(S(C)(=O)=O)c(F)c3)cc2N(C(=O)C2CCC2)C[C@@H]1C [Example I-1083] | 1000 to 10000 | 50 to 500 | > 500
17 | CC(=O)N1c2ccc(-c3ccc(S(=O)(=O)CCN)cc3)cc2N(C(=O)C2CC2)C[C@@H]1C [Example I-447] | 1000 to 10000 | 50 to 500 | > 500

Row | Compound | IC50 (BRD4 BD1) [nM] | IC50 (BRD4 BD2) [nM] | IC50 (MV4-11 cells) [nM]
18 | CC(=O)N1c2ccc(-c3ccc(NC(=O)N(C)C)cc3)cc2N(C(=O)c2ccco2)C[C@@H]1C [Example I-284] | 1000 to 10000 | < 50 | 100 to 500
19 | CC(=O)N1c2ccc(-c3ccc(S(C)(=O)=O)cn3)cc2N(C(=O)c2ccco2)C[C@@H]1C [Example I-407] | 1000 to 10000 | < 50 | > 500
20 | CC(=O)N1c2ccc(-c3cnn(C4CC4)c3)cc2N(c2nn(C)c3c(F)cccc23)C[C@@H]1C [Example I-179, 1-[(2S)-6-(1-cyclopropyl-1H-pyrazol-4-yl)-4-(7-fluoro-1-methyl-1H-indazol-3-yl)-2-methyl-1,2,3,4-tetrahydroquinoxalin-1-yl]ethan-1-one] | 100 to 1000 | < 50 | 100 to 500
21 | CC(=O)N1c2ccc(-c3ccc4scnc4c3)cc2N(C(=O)c2ccco2)C[C@@H]1C [Example I-865] | 100 to 1000 | < 50 | 100 to 500
22 | CNC(=O)c1cccc(-c2ccc3c(c2)N(C(=O)c2ccco2)CCN3C(C)=O)c1 [Example I-868] | > 10000 | > 500 | > 500
23 | CC(=O)N1c2ccc(-c3ccc(S(C)(=O)=O)c(F)c3)cc2N(C(=O)OC2CCOCC2)C[C@@H]1C [Example I-1242] | 1000 to 10000 | 50 to 500 | > 500
24 | COC(=O)N1c2ccc(-c3cnn(Cc4cnccn4)c3)cc2N(C(=O)OC(C)C)C[C@@H]1C [Example I-633] | 100 to 1000 | 50 to 500 | 100 to 500
25 | CC(=O)N1c2ccc(-c3cnn(C4CC4)c3)cc2N(C(=O)Oc2ccc(F)c(C)c2)C[C@@H]1C [Example I-266] | 100 to 1000 | < 50 | 100 to 500
26 | CC(=O)N1c2ccc(-c3ccc(N4CCCS4(=O)=O)cc3)cc2N(C(=O)OC(C)C)C[C@@H]1C [Example I-469] | 100 to 1000 | 50 to 500 | 100 to 500
27 | CC(=O)N1c2ccc(-c3ccc(N)nc3)cc2N(C(=O)c2ccco2)C[C@@H]1C [Example I-295] | 1000 to 10000 | < 50 | 100 to 500
28 | CC(=O)N[C@H]1CCN(C(=O)c2ccc(-c3ccc4c(c3)N(C(=O)OC(C)C)C[C@H](C)N4C(=O)C3CC3)cc2)C1 [Example I-570] | 100 to 1000 | 50 to 500 | 100 to 500
29 | CC(=O)N1c2ccc(-c3cnn(Cc4ncccn4)c3)cc2N(C(=O)C2CC2)C[C@@H]1C [Example I-126, (S)-1-(4-(cyclopropanecarbonyl)-2-methyl-6-(1-(pyrimidin-2-ylmethyl)-1H-pyrazol-4-yl)-3,4-dihydroquinoxalin-1(2H)-yl)ethanone] | 1000 to 10000 | < 50 | > 500
30 | CC(=O)N1c2ccc(-c3cnn(C4CC4)c3)cc2N(C(=O)OC2COC2)C[C@@H]1C [Example I-997] | 100 to 1000 | 50 to 500 | 100 to 500
31 | CC(=O)N1c2ccc(-c3cnn(CCO)c3)cc2N(C(=O)OC2CC(F)(F)C2)C[C@@H]1C [Example I-27, (S)-3,3-difluorocyclobutyl 4-acetyl-7-(1-(2-hydroxyethyl)-1H-pyrazol-4-yl)-3-methyl-3,4-dihydroquinoxaline-1(2H)-carboxylate] | 100 to 1000 | 50 to 500 | 100 to 500
32 | CC(=O)N1c2ccc(-c3cnn(CCO)c3)cc2N(c2nn(C)c3c(F)cccc23)C[C@@H]1C [Example I-180, 1-[(2S)-4-(7-fluoro-1-methyl-1H-indazol-3-yl)-6-[1-(2-hydroxyethyl)-1H-pyrazol-4-yl]-2-methyl-1,2,3,4-tetrahydroquinoxalin-1-yl]ethan-1-one] | 1000 to 10000 | < 50 | 100 to 500
33 | CC(=O)N1c2ccc(-c3ccc(S(=O)(=O)N4CCCC4)cc3)cc2N(C(=O)c2ccco2)C[C@@H]1C [Example I-286] | 100 to 1000 | > 500 | < 100
